According to ChEMBL document CHEMBL1201862, “PubChem BioAssay data set” (2004):
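Tested at 5 concentrations; 48 h exposure; 96-well plates; endpoints linearly interpolated, else capped at highest concentration. GI50: concentration for 50% inhibition of growth.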 The source made the active and inactive calls. Cut-off read from the data, not from the text of the source: active = GI50 up to about 1.1 µM and inactive = higher.

Key:
Experiment in all cases: DTP human tumour cell line panel, 48 h
KM12 = test system: KM12
M19-MEL = test system: M19-MEL
XF498 = test system: XF498
DLD-1 = test system: DLD-1
SK-MEL-2 = test system: SK-MEL-2
HOP-18 = test system: HOP-18
SNB-19 = test system: SNB-19
OVCAR-8 = test system: OVCAR-8
Malme-3M = test system: Malme-3M
NCI/ADR-RES = test system: NCI/ADR-RES
NCI-H460 = test system: NCI-H460
LOX IMVI = test system: LOX IMVI
UACC-62 = test system: UACC-62
OVCAR-4 = test system: OVCAR-4
HOP-62 = test system: HOP-62
HCT-15 = test system: HCT-15
SK-MEL-5 = test system: SK-MEL-5
OVCAR-5 = test system: OVCAR-5
HL-60 = test system: HL-60
KM-20L2 = test system: KM-20L2
COLO 205 = test system: COLO 205
SNB-75 = test system: SNB-75
U-251 = test system: U-251
HOP-92 = test system: HOP-92
UO-31 = test system: UO-31
SF-295 = test system: SF-295
SK-MEL-28 = test system: SK-MEL-28
CAKI-1 = test system: CAKI-1
NCI-H226 = test system: NCI-H226
MCF7 = test system: MCF7
UACC-257 = test system: UACC-257
HT-29 = test system: HT-29
SNB-78 = test system: SNB-78
K562 = test system: K562
NCI-H522 = test system: NCI-H522
DMS-273 = test system: DMS-273
SK-OV-3 = test system: SK-OV-3
A549 = test system: A549
HCT-116 = test system: HCT-116
EKVX = test system: EKVX
SF-268 = test system: SF-268
SW-620 = test system: SW-620
A498 = test system: A498
SN12C = test system: SN12C
RPMI-8226 = test system: RPMI-8226
OVCAR-3 = test system: OVCAR-3
SF-539 = test system: SF-539
CCRF-CEM = test system: CCRF-CEM
NCI-H23 = test system: NCI-H23
DMS-114 = test system: DMS-114
MOLT-4 = test system: MOLT-4
RXF 393 = test system: RXF 393
IGROV-1 = test system: IGROV-1
HCC 2998 = test system: HCC 2998
MDA-MB-435 = test system: MDA-MB-435
BT-549 = test system: BT-549
TK-10 = test system: TK-10
786-0 = test system: 786-0
MDA-N = test system: MDA-N
T47D = test system: T47D
DU-145 = test system: DU-145
LXFL 529 = test system: LXFL 529
SR = test system: SR
PC-3 = test system: PC-3
MDA-MB-231 = test system: MDA-MB-231
Hs-578T = test system: Hs-578T
ACHN = test system: ACHN
M14 = test system: M14

Measured: GI50

COc1cccc2c1C(=O)c1c(O)c3c(c(O)c1C2=O)CC(O)(C(C)=O)CC3O (stereo not given)
inactive: KM12 6.17 µM | M19-MEL 5.79 µM | DLD-1 6.85 µM | SK-MEL-2 8.07 µM | HOP-18 22.6 µM | SNB-19 6.03 µM | OVCAR-8 2.84 µM | Malme-3M 4.56 µM | NCI/ADR-RES 5.68 µM | NCI-H460 1.56 µM | LOX IMVI 1.63 µM | UACC-62 5.58 µM | OVCAR-4 6.34 µM | HOP-62 2.14 µM | SK-MEL-5 2.16 µM | OVCAR-5 10.5 µM | HL-60 3.6 µM | KM-20L2 6.85 µM | COLO 205 3.02 µM | SNB-75 9.68 µM | U-251 4.03 µM | HOP-92 7.11 µM | UO-31 9.57 µM | SF-295 5.73 µM | SK-MEL-28 12.7 µM | CAKI-1 4.61 µM | NCI-H226 5.56 µM | UACC-257 10.6 µM | HT-29 6.04 µM | SNB-78 9.18 µM | K562 4.34 µM | DMS-273 2.3 µM | SK-OV-3 11.5 µM | A549 6.55 µM | HCT-116 2.41 µM | EKVX 4.9 µM | SF-268 4.23 µM | SW-620 2.33 µM | SN12C 3.8 µM | RPMI-8226 2.18 µM | OVCAR-3 7.8 µM | SF-539 4.74 µM | CCRF-CEM 1.88 µM | NCI-H23 4.88 µM | DMS-114 6.97 µM | MOLT-4 1.98 µM | RXF 393 5.98 µM | IGROV-1 3.44 µM | HCC 2998 7.24 µM
9.23 µM: HCT-15
active: XF498 0.537 µM | MCF7 1.01 µM | NCI-H522 1.03 µM | A498 1 µM

CCCCCCCCCCCCCCCCCCOP(=O)([O-])OC1CC[N+](C)(C)CC1 [PERIFOSINE]
inactive: M19-MEL 4.01 µM | XF498 15.7 µM | MDA-MB-435 14.7 µM | BT-549 12.2 µM | DLD-1 10.4 µM | TK-10 2.04 µM | SK-MEL-2 13.8 µM | 786-0 2.73 µM | SNB-19 9.25 µM | OVCAR-8 14.7 µM | Malme-3M 7.06 µM | NCI/ADR-RES 14 µM | MDA-N 12.4 µM | NCI-H460 1.75 µM | LOX IMVI 7.43 µM | UACC-62 8.39 µM | OVCAR-4 > 9.95 µM | T47D 17.9 µM | HOP-62 7.53 µM | DU-145 16.9 µM | SK-MEL-5 15.8 µM | OVCAR-5 2.52 µM | HL-60 1.19 µM | KM-20L2 2.24 µM | LXFL 529 4.03 µM | COLO 205 3.24 µM | SNB-75 5.14 µM | U-251 12.4 µM | HOP-92 3.38 µM | UO-31 8.91 µM | SF-295 4.98 µM | SK-MEL-28 17.9 µM | MDA-MB-231 6.89 µM | CAKI-1 3.6 µM | NCI-H226 11.2 µM | MCF7 15.7 µM | UACC-257 19.8 µM | HT-29 3.56 µM | SNB-78 23.4 µM | K562 16.4 µM | NCI-H522 2.97 µM | DMS-273 2.86 µM | SK-OV-3 5.64 µM | A549 10.7 µM | HCT-116 7.94 µM | EKVX 11.3 µM | SF-268 9.89 µM | SW-620 8.05 µM | Hs-578T 13 µM | A498 3.22 µM | SN12C 4.6 µM | ACHN 12.4 µM | RPMI-8226 3.83 µM | OVCAR-3 13.2 µM | SF-539 15.6 µM | M14 2.97 µM | NCI-H23 16.1 µM | DMS-114 12.5 µM | MOLT-4 3.4 µM | RXF 393 1.79 µM | IGROV-1 2.18 µM | HCC 2998 5.16 µM
2.48 µM: HCT-15
active: KM12 0.53 µM | SR 1.11 µM | PC-3 0.873 µM | CCRF-CEM 0.714 µM

CCC1=NC(CO)[C@H](c2ccccc2)O1 (stereo not given in full)
inactive: KM12 > 100 µM | M19-MEL > 100 µM | XF498 > 100 µM | DLD-1 > 100 µM | TK-10 > 100 µM | SK-MEL-2 > 100 µM | HOP-18 > 100 µM | 786-0 > 100 µM | SNB-19 > 100 µM | OVCAR-8 > 100 µM | Malme-3M > 100 µM | NCI-H460 > 100 µM | LOX IMVI > 100 µM | UACC-62 > 100 µM | OVCAR-4 > 100 µM | HOP-62 > 100 µM | SK-MEL-5 > 100 µM | OVCAR-5 > 100 µM | KM-20L2 > 100 µM | COLO 205 > 100 µM | SNB-75 > 100 µM | U-251 > 100 µM | HOP-92 > 100 µM | SR > 100 µM | SF-295 > 100 µM | SK-MEL-28 > 100 µM | CAKI-1 > 100 µM | UACC-257 > 100 µM | HT-29 > 100 µM | SNB-78 > 100 µM | K562 > 100 µM | DMS-273 > 100 µM | A549 > 100 µM | HCT-116 > 100 µM | EKVX > 100 µM | SF-268 > 100 µM | SW-620 > 100 µM | A498 > 100 µM | SN12C > 100 µM | ACHN > 100 µM | RPMI-8226 > 100 µM | OVCAR-3 > 100 µM | SF-539 > 100 µM | NCI-H23 > 100 µM | DMS-114 > 100 µM | RXF 393 > 100 µM | IGROV-1 > 100 µM
> 100 µM: HCT-15

Nc1ccc(/N=N/c2ccc(/C=C/c3ccc(/N=N/c4ccc(N)c5ccc(S(=O)(=O)O)cc45)cc3S(=O)(=O)O)c(S(=O)(=O)O)c2)c2cc(S(=O)(=O)O)ccc12
> 100 µM: HCT-15
inactive: KM12 > 100 µM | M19-MEL > 100 µM | XF498 > 62.2 µM | DLD-1 > 100 µM | SK-MEL-2 > 100 µM | HOP-18 > 100 µM | SNB-19 > 100 µM | OVCAR-8 > 100 µM | Malme-3M > 100 µM | NCI/ADR-RES > 100 µM | NCI-H460 > 100 µM | LOX IMVI > 100 µM | UACC-62 > 100 µM | OVCAR-4 > 100 µM | HOP-62 > 100 µM | SK-MEL-5 > 100 µM | OVCAR-5 > 100 µM | HL-60 > 100 µM | KM-20L2 > 100 µM | COLO 205 > 100 µM | SNB-75 56.2 µM | U-251 > 100 µM | HOP-92 88.1 µM | UO-31 > 100 µM | SF-295 > 100 µM | SK-MEL-28 > 100 µM | NCI-H226 > 71.1 µM | MCF7 > 100 µM | UACC-257 > 100 µM | HT-29 > 100 µM | SNB-78 > 100 µM | K562 > 100 µM | NCI-H522 > 100 µM | DMS-273 > 88.1 µM | SK-OV-3 > 100 µM | A549 > 100 µM | HCT-116 > 100 µM | EKVX > 100 µM | SF-268 > 100 µM | SW-620 > 100 µM | A498 > 100 µM | SN12C > 100 µM | RPMI-8226 > 100 µM | OVCAR-3 > 100 µM | SF-539 > 100 µM | CCRF-CEM > 100 µM | NCI-H23 > 100 µM | DMS-114 > 100 µM | MOLT-4 > 100 µM | RXF 393 > 100 µM | IGROV-1 > 100 µM | HCC 2998 > 100 µM

COC(=O)N(C(=O)OC)C(C(=O)O)C(C)C (stereo not given)
inactive: KM12 > 100 µM | M19-MEL > 100 µM | DLD-1 > 100 µM | TK-10 > 100 µM | SK-MEL-2 > 100 µM | HOP-18 > 100 µM | 786-0 > 100 µM | SNB-19 > 100 µM | OVCAR-8 > 100 µM | NCI-H460 > 100 µM | LOX IMVI > 100 µM | OVCAR-4 > 100 µM | HOP-62 > 100 µM | OVCAR-5 > 100 µM | HL-60 > 100 µM | KM-20L2 > 100 µM | LXFL 529 > 100 µM | COLO 205 > 100 µM | SNB-75 > 100 µM | U-251 > 100 µM | HOP-92 95.9 µM | UO-31 > 100 µM | SF-295 > 100 µM | SK-MEL-28 > 100 µM | CAKI-1 > 100 µM | NCI-H226 > 100 µM | UACC-257 > 100 µM | HT-29 > 100 µM | SNB-78 > 100 µM | NCI-H522 > 100 µM | DMS-273 > 100 µM | A549 > 100 µM | EKVX > 100 µM | SF-268 > 100 µM | SW-620 > 100 µM | SN12C > 100 µM | ACHN > 100 µM | SF-539 > 100 µM | M14 > 100 µM | NCI-H23 > 100 µM | DMS-114 > 100 µM | RXF 393 65 µM | HCC 2998 > 100 µM
